From patent publication US12358899B2, “Thyroid hormone receptor agonists and uses thereof” (XIZANG HAISCO PHARMACEUTICAL CO., LTD., priority 2018, dated 2025)

How the values were obtained:
C57BL/6cnc mice [1] = experiment: Cholesterol-lowering efficacy in trans-fat AMLN diet-induced hypercholesterolemia mouse model; format: in vivo; conditions: for LDL-c / liver TC / plasma TC: daily oral gavage 2 weeks, 0.3-3 mg/kg (Example 7) or 1 and 3 mg/kg; for ALT / AST: AMLN diet mice, 0.3, 1, 3 mg/kg oral, 2 weeks, MGL-3196 effect at doses greater than 1 mg/kg; for efficacy in cholesterol reduction compared with MGL-3196: same dose
Protocol: C57BL/6cnc mice were fed with AMVLN diet containing 40 Kcal % Fat, 20 Kcal % Fructose and 2% Cholesterol (Research Diets, D09100301) for 5 weeks to induce hypercholesterolemia. The cholesterol lowering efficacy of compounds disclosed herein were tested in two separate studies. […] Thyroid hormone T3 (0.1 mg/kg, intraperitoneal injection) was evaluated as a positive control in both studies. The treatment lasted two weeks with daily oral gavage. Blood samples were taken before the dosing on the first day and again at the end of study for detection of plasma cholesterol (TC), triglycerides (TG) and LDL-c. […] At the end of study, the liver tissues were taken for measuring the hepatic TC and TG levels. The compound concentration was quantified in blood, liver and heart.

Thyroidectomized rats = experiment: Heart safety evaluation in hypothyroid rat: heart rate; format: in vivo; conditions: 100 mg/kg oral gavage, monitored for 1 hour, 10% change is normal noise
Protocol: (§1) SD Rats underwent thyroidectomy and recovered for 10 days. T3 and T4 were tested to confirm the complete thyroidectomy. […] Note that the dose for these compounds was […] higher than their therapeutic dose (1 mg/kg by oral gavage) in mouse models. For comparison, thyroid hormone T3 was also tested at 0.1 mg/kg with intraperitoneal injection. […] After 6 hours, the heart tissues were collected to quantitate the expression of α-MHC, a thyroid hormone responsive and THRα-target gene in heart.

CYP 2C8 = biological target: T1, CYP 2C8 (Homo sapiens, UniProt P10632); experiment: CYP inhibition in human liver microsome, 2C8; format: in vitro ADME; conditions: human liver microsomes, substrate amodiaquine, top 50 μM; read-out: CYP450 inhibition IC50 2C8
T1 construct: from tissue; host or cells: human liver microsomes
T1 sequence (P10632 1-490): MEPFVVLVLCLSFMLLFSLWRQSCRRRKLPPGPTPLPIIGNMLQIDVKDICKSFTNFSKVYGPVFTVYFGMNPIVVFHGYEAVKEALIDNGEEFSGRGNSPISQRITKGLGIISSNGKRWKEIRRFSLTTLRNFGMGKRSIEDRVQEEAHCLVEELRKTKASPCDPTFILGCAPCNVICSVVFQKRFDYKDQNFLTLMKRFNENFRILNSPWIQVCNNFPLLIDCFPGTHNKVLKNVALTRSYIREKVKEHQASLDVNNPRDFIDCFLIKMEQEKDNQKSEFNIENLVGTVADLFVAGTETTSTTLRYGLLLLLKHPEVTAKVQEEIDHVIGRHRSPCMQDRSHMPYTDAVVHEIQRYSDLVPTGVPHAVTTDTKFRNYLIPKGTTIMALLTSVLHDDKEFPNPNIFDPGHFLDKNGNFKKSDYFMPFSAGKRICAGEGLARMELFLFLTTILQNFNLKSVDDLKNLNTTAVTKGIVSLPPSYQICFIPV
Protocol: Test compounds were evaluated for CYP inhibition using human liver microsomes (HLM). Test compounds were 1:3 serially diluted starting at 50 μM to generate 7 different concentrations. After incubation of diluted test compounds with HLM, a substrate cocktail composed of phenacetin (10 uM), amodiaquine (2 uM), diclofenac (5 uM), s-mephenytoin (30 uM), dextromethorphan (5 uM), and midazolam (2 uM) was added to check the remaining CYP activity for CYP 1A2, 2C8, 2C9, 2C19, 2D6 and 3A4. The CYP activity was measured by detecting the peak area of individual metabolites of know CYP substrates using LC/MS/MS. A percentage of inhibition of CYP was calculated at each final concentration of test compound, through which an IC50 was fitted to represent the inhibition potential.

α-MHC = experiment: Heart safety evaluation in hypothyroid rat: cardiac α-MHC expression; format: in vivo; conditions: intraperitoneal, 37.5 mg/kg (T3 0.1 mg/kg), heart tissue after 6 hours
Protocol: as §1

C57BL/6cnc mice [2] = experiment: Synergistic effect of Example 7 with other NASH compounds in mouse model; format: in vivo; conditions: Example 7 0.3 mg/kg oral daily with liraglutide, Elafibranor or CDDO-Me, 2 weeks
Description: There are other candidates being developped for inflammation, metabolism syndromes or NASH These include glucagon-like peptide-1 (GLP-1) receptor agonist liraglutide, peroxisome proliferator-activated receptor-α and -β (PPAR-α/δ) agonist elafibranor, and nuclear erythroid 2-related factor 2 (NRF2) activator bardoxolone methyl (CDDO-Me). These candidates target different proteins and pathways, therefore have different mechanisms of action related to steatosis, inflammation, and fibrosis.
C57BL/6cnc mice were fed with high-fat diet containing 60 kacl % fat and 0.10% methionine (no added choline) (Research Diets, A06071302) for 12 weeks to induce NASH model. After 12-week diet induction, the mice had increased plasma levels of TC, LDL-c, ALT, and fibrosis markers. […] An Example 7 alone group and a vehicle group were also set up for controls. […] After 2-week treatment, serum biochemistry was measured; liver was collected to measure liver TC and TG. Livers were punched in 2 mm diameter and fixed, sectioned and stained with Sirius Red, and the fibrosis and steatosis were scored.

THRβ-LBD = biological target: T2, THRβ-LBD (Homo sapiens, UniProt P10828)
T2 sequence (P10828 217-461 limits assumed): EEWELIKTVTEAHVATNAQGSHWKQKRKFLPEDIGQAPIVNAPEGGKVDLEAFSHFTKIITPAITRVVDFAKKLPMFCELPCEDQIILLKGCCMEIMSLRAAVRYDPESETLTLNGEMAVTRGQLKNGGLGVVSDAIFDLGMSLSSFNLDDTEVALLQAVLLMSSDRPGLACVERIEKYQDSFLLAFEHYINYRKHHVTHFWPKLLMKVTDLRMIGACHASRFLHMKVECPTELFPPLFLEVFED
Protocol: The coactivator recruitment assay was performed using LanthaScreen™ TR-FRET TR coactivator assay kit (ThermoFisher). […] THRβ-LBD (ligand binding domain) or THRα-LBD was added to test compounds at a final concentration of 2.5 nM followed by addition of a mixture of the fluorescein-coactivator peptide and terbium-conjugated anti-GST antibody. The diluted test compounds were mixed with the same volume of other reagents (10 μl:10 μl). After 2-hour incubation period at room temperature, the plate was read at wavelengths of 520 nm and 495 nm using Envison plate reader (PerkinElmer). […] In addition, the selectivity for each compound was normalized for the selectivity of T3 run in the same assay.

IC50 (CYP 2C8)	selectivity ratio (THRβ-LBD)	Compound	LDL-c (C57BL/6cnc mice [1]; AMLN diet mice)	liver TC (C57BL/6cnc mice [1]; AMLN diet mice)	plasma TC (C57BL/6cnc mice [1]; AMLN diet mice)	heart rate change (Thyroidectomized rats)	ALT (C57BL/6cnc mice [1])	AST (C57BL/6cnc mice [1])	liver function safety compared with MGL-3196 (C57BL/6cnc mice [1]; AMLN diet mice, from ALT and AST)	efficacy in cholesterol reduction compared with MGL-3196 (C57BL/6cnc mice [1]; AMLN diet mice)	expression of cardiac α-MHC (α-MHC)	synergistic effect with other candidates in reduction of liver and plasma lipids and improvement of liver conditions (C57BL/6cnc mice [2])	rank among the compounds in reducing the liver and plasma cholesterol (C57BL/6cnc mice [1]; AMLN diet mice, second study, 1 and 3 mg/kg)
4.24 µM		[2H]c1c(Cl)c(Oc2cc(C(C([2H])([2H])[2H])C([2H])([2H])[2H])c(=O)[nH]n2)c(Cl)c([2H])c1-n1nc(C#N)c(=O)[nH]c1=O [Example 30, 2-(3,5-dichloro-4-((6-oxo-5-(propan-2-yl-1,1,1,3,3,3-d6)-1,6-dihydropyridazin-3-yl)oxy)phenyl-2,6-d2)-3,5-dioxo-2,3,4,5-tetrahydro-1,2,4-triazine-6-carbonitrile]	significantly reduced	significantly reduced	significantly reduced	no heart rate change							
3.08 µM	12.3	C[C@@H]1CCc2c(Oc3c(Cl)cc(-n4nc(C#N)c(=O)[nH]c4=O)cc3Cl)n[nH]c(=O)c21 (single isomer, unassigned) [Example 41]	significantly reduced	significantly reduced	significantly reduced	no heart rate change				more effective			most effective
4.31 µM		CC(C)c1cc(Oc2c(Cl)cc(-n3nc(C#N)c(=O)[nH]c3=O)cc2Cl)n[nH]c1=O [MGL-3196, reference compound]				only mildly affected	increased	increased			not affected		

Compound	IC50 (CYP 2C8)	selectivity ratio (THRβ-LBD)	LDL-c (C57BL/6cnc mice [1]; AMLN diet mice)	liver TC (C57BL/6cnc mice [1]; AMLN diet mice)	plasma TC (C57BL/6cnc mice [1]; AMLN diet mice)	heart rate change (Thyroidectomized rats)	ALT (C57BL/6cnc mice [1])	AST (C57BL/6cnc mice [1])	liver function safety compared with MGL-3196 (C57BL/6cnc mice [1]; AMLN diet mice, from ALT and AST)	efficacy in cholesterol reduction compared with MGL-3196 (C57BL/6cnc mice [1]; AMLN diet mice)	expression of cardiac α-MHC (α-MHC)	synergistic effect with other candidates in reduction of liver and plasma lipids and improvement of liver conditions (C57BL/6cnc mice [2])	rank among the compounds in reducing the liver and plasma cholesterol (C57BL/6cnc mice [1]; AMLN diet mice, second study, 1 and 3 mg/kg)
[2H]C([2H])([2H])C(c1cc(Oc2c(Cl)cc(-n3nc(C#N)c(=O)[nH]c3=O)cc2Cl)n[nH]c1=O)C([2H])([2H])[2H] [Example 7, 2-(3,5-dichloro-4-((6-oxo-5-(propan-2-yl-1,1,1,3,3,3-d6)-1,6-dihydropyridazin-3-yl)oxy)phenyl)-3,5-dioxo-2,3,4,5-tetrahydro-1,2,4-triazine-6-carbonitrile]	7.56 µM		significantly reduced	significantly reduced	significantly reduced	only mildly affected	no effect	no effect	safer	comparable efficacy	not affected	significantly synergistic effect	
